US7034053B2, “Phenethanolamine derivatives, compositions, and their use as agonists at atypical beta-adrenoreceptors” (SmithKline Beecham Corporation, priority 2001, dated 2006)

| SMILES | melting point |
| --- | --- |
| O=C(O)c1ccsc1-c1cccc(NCCNC[C@H](O)c2cccc(Cl)c2)c1 [Example 5, 2-(3-{[2-(3-Chlorophenyl)-2R-hydroxyl-ethylamino]ethylamino}phenyl)thiophene-3-carboxylic acid] | 275 °C (dec.) |
| O=C(O)c1ccoc1-c1cccc(NCCNC[C@H](O)c2cccc(Cl)c2)c1 [Example 2, 2-(3-{[2-(3-Chlorophenyl)-2R-hydroxyl-ethylamino]ethylamino}phenyl)furan-3-carboxylic acid] | 250 °C (dec.) |
